Source: patent US20230104936A1, “TRPML MODULATORS” (Casma Therapeutics, Inc., priority 2019, published 2023)

System: TFEB
Assay: TFEB nuclear translocation assay, HeLa wt cells
Format: cell-based
Details: 2 hrs compound treatment, Table 1 does not say HeLa wt or TRPML1 KO
Procedure, shortened: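 Cells are plated overnight, exposed to compounds for 2 hrs at 37° C, fixed with 4% PFA, blocked, and stained overnight at 4° C with rabbit anti-TFEB. After Alexa 488 secondary and Hoechst, nuclei and a perinuclear ring are segmented to give a nuclear:ring intensity ratio and AC50.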

| SMILES | AC50 (Homo sapiens, HeLa, 2 h) [µM] | AC50 [µM] |
| --- | --- | --- |
| C[C@@H]1CN(CC2CCN(c3c(F)cccc3[C@H](C)S(=O)(=O)c3ccc(S(=O)(=O)N(C)C)cc3)CC2)C[C@H](C)O1 [Compound A-783, 4-[(1S)-1-[2-(4-{[(2R,6S)-2,6-dimethylmorpholin-4-yl]methyl}piperidin-1-yl)-3-fluorophenyl]ethanesulfonyl]-N,N-dimethylbenzene-1-sulfonamide] | ≤ 2 |  |
| CN(C)S(=O)(=O)c1ccc(S(=O)(=O)C(c2cccc(F)c2N2CCCCC2)C2CC2)cc1 (single isomer, unassigned) [Compound A-983, 4-((cyclopropyl(3-fluoro-2-(piperidin-1-yl)phenyl)methyl)sulfonyl)-N,N-dimethylbenzenesulfonamide] |  | ≤ 2 |
| CC(c1cccc(F)c1N1CCC(CN2CCC(F)(F)CC2)CC1)S(=O)(=O)c1ccc(C(F)F)cc1 (single isomer, unassigned) [Compound A-998, 1-((1-(2-(1-((4-(difluoromethyl)phenyl)sulfonyl)ethyl)-6-fluorophenyl)piperidin-4-yl)methyl)-4,4-difluoropiperidine] |  | 2.01 to 8 |
| CN(C)S(=O)(=O)c1ccc(S(=O)(=O)Nc2ccccc2N2CC(O)(c3ccc(Cl)cc3F)C2)cc1 [Compound A-162, N4-{2-[3-(4-chloro-2-fluorophenyl)-3-hydroxyazetidin-1-yl]phenyl}-N1,N1-dimethylbenzene-1,4-disulfonamide] | 2.01 to 8 |  |
| C[C@@H]1CN(CC2CCN(c3c(F)cccc3NS(=O)(=O)C3(c4ccccc4)CC3)CC2)C[C@H](C)O1 [Compound A-767, N-[2-(4-{[(2R,6S)-2,6-dimethylmorpholin-4-yl]methyl}piperidin-1-yl)-3-fluorophenyl]-1-phenylcyclopropane-1-sulfonamide] | ≤ 2 |  |
| CN1CC2(CCN(c3ccccc3NS(=O)(=O)c3ccc(S(=O)(=O)N(C)C)cc3)C(=O)C2)c2ccc(F)cc21 (centres unmarked) [Compound A-472, N4-(2-{6-fluoro-1-methyl-2′-oxo-1,2-dihydrospiro[indole-3,4′-piperidin]-1′-yl}phenyl)-N1,N1-dimethylbenzene-1,4-disulfonamide] | ≤ 2 |  |
| CN(C)S(=O)(=O)c1ccc(S(=O)(=O)Nc2cccc(Cl)c2N2CCOCC2)nc1 [Compound A-340, N2-[3-chloro-2-(morpholin-4-yl)phenyl]-N5,N5-dimethylpyridine-2,5-disulfonamide] | ≥ 10 |  |
| Cc1nc(C2CCN(c3ccc(Cl)cc3F)CC2)cn1S(=O)(=O)c1ccc(S(=O)(=O)N(C)C)cc1 [Compound A-39, 4-((4-(1-(4-chloro-2-fluorophenyl)piperidin-4-yl)-2-methyl-1H-imidazol-1-yl)sulfonyl)-N,N-dimethylbenzenesulfonamide] | 2.01 to 8 |  |
| C[C@@H]1CN(CC2CCN(c3c(NS(=O)(=O)c4ccc(S(=O)(=O)N(C)C)cc4)cccc3C(F)F)CC2)C[C@H](C)O1 [Compound A-831, N4-[3-(difluoromethyl)-2-(4-{[(2R,6S)-2,6-dimethylmorpholin-4-yl]methyl}piperidin-1-yl)phenyl]-N1,N1-dimethylbenzene-1,4-disulfonamide] | ≤ 2 |  |
| CN(C)S(=O)(=O)c1ccc(S(=O)(=O)Nc2ccccc2N2CCC3(COC(C)(C)C3)CC2=O)cc1 (centres unmarked) [Compound A-735, N4-(2-{3,3-dimethyl-7-oxo-2-oxa-8-azaspiro[4.5]decan-8-yl}phenyl)-N1,N1-dimethylbenzene-1,4-disulfonamide] | ≥ 10 |  |
| CC(c1cccc(F)c1N1CCC(CN2C[C@@H](C)O[C@@H](C)C2)CC1)S(=O)(=O)c1ccc(S(=O)(=O)C(F)F)cc1 (single isomer, unassigned) [Compound A-807, 4-((1-(2-(1-((4-((difluoromethyl)sulfonyl)phenyl)sulfonyl)ethyl)-6-fluorophenyl)piperidin-4-yl)methyl)-2,6-dimethylmorpholine] | ≤ 2 |  |
| CS(=O)(=O)c1ccc(S(=O)(=O)Nc2ccccc2N2CCC3(CC2)CN(CC2CC2(F)F)c2cc(F)ccc23)cc1 (centres unmarked) [Compound A-468, N-(2-{1-[(2,2-difluorocyclopropyl)methyl]-6-fluoro-1,2-dihydrospiro[indole-3,4′-piperidin]-1′-yl}phenyl)-4-methanesulfonylbenzene-1-sulfonamide] | ≤ 2 |  |
| CN(C)S(=O)(=O)c1ccc(S(=O)(=O)Nc2ccccc2N2CCC3(CC2)CN(Cc2ccccc2)c2cc(F)ccc23)cc1 [Compound A-304, N4-(2-{1-benzyl-6-fluoro-1,2-dihydrospiro[indole-3,4′-piperidin]-1′-yl}phenyl)-N1,N1-dimethylbenzene-1,4-disulfonamide] | ≤ 2 |  |
| CC(c1cccc(F)c1N1CCCCC1)[S+]([O-])c1ccc(S(=O)(=O)C(F)F)cc1 (centres unmarked) [Compound A-972, 1-{2-[1-(4-difluoromethanesulfonylbenzenesulfinyl)ethyl]-6-fluorophenyl}piperidine] | 2.01 to 8 |  |
| COCC1(C)CCN(c2ccccc2NS(=O)(=O)Cc2cccc(OC)c2)CC1 [Compound A-596, N-{2-[4-(methoxymethyl)-4-methylpiperidin-1-yl]phenyl}-1-(3-methoxyphenyl)methanesulfonamide] | 2.01 to 8 |  |
| C[C@H]1COC[C@H](C)N1CC1CCN(c2c(F)cccc2NS(=O)(=O)c2ccc(S(=N)(=O)N(C)C)cc2)CC1 (single isomer, unassigned) [Compound A-834] | ≤ 2 |  |
| CS(=O)(=O)c1ccc(S(=O)(=O)Nc2ccccc2N2CCC3(CC2)COCc2ccccc23)cc1 [Compound A-481, N-(2-{1,3-dihydrospiro[2-benzopyran-4,4′-piperidin]-1′-yl}phenyl)-4-methanesulfonylbenzene-1-sulfonamide] | ≤ 2 |  |
| COC(C)(C)C(=O)N1CCN(c2ccccc2NS(=O)(=O)c2ccc(S(=O)(=O)N(C)C)cc2)CC1 [Compound A-431, N4-{2-[4-(2-methoxy-2-methylpropanoyl)piperazin-1-yl]phenyl}-N1,N1-dimethylbenzene-1,4-disulfonamide] | 2.01 to 8 |  |
| Cc1ccc(S(=O)(=O)Nc2cccc(F)c2N2CCC(CN3C4CCC3COC4)CC2)cc1 [Compound A-881, N-{3-fluoro-2-[4-({3-oxa-8-azabicyclo[3.2.1]octan-8-yl}methyl)piperidin-1-yl]phenyl}-4-methylbenzene-1-sulfonamide] | ≤ 2 |  |
| CN1CC2CN(c3ccccc3NS(=O)(=O)c3ccc(S(=O)(=O)N(C)C)cc3)CC2C1 (centres unmarked) [Compound A-58, N1,N1-dimethyl-N4-(2-{5-methyl-octahydropyrrolo[3,4-c]pyrrol-2-yl}phenyl)benzene-1,4-disulfonamide] | ≥ 10 |  |
| CN(C)S(=O)(=O)c1ccc(S(=O)(=O)Nc2ccccc2N2CCC(c3cccc(-c4nn[nH]n4)c3)CC2)cc1 [Compound A-272, N1,N1-dimethyl-N4-(2-{4-[3-(2H-1,2,3,4-tetrazol-5-yl)phenyl]piperidin-1-yl}phenyl)benzene-1,4-disulfonamide] | ≥ 10 |  |
| COCC1(C)CCN(c2ccccc2NS(=O)(=O)c2ccc(C(F)F)cc2)CC1 [Compound A-620, 4-(difluoromethyl)-N-{2-[4-(methoxymethyl)-4-methylpiperidin-1-yl]phenyl}benzene-1-sulfonamide] | ≤ 2 |  |
| COCC1(C)CCN(c2ccccc2NS(=O)(=O)Cc2cccc(C)c2)CC1 [Compound A-593, N-{2-[4-(methoxymethyl)-4-methylpiperidin-1-yl]phenyl}-1-(3-methylphenyl)methanesulfonamide] | 2.01 to 8 |  |
